From patent EP2678315B1, “(Pyridin-4-yl)benzylamides as allosteric modulators of alpha 7 nAChR” (Janssen Pharmaceutica, N.V., priority 2011, dated 2012) come the findings set out here.

SMILES strings stand for the structures. Where two headings read alike, the source gives them in different places.

The target of test [1] is T1, human alpha 7-wt nAChR (Homo sapiens, UniProt P36544).
T1 construct: expressed in transfected cells
Put plainly: Ca2+ flux imaging (FDSS) (protocol B). The test is classed as cell-based. To be noted: for EC50: read-out: pEC50 (converted); for Emax: read-out: % Efficacy. The essentials: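 Fluo-4AM-loaded (2 µM) cells expressing human α7-wt nAChR in HEPES-HBSS with 5 mM CaCl2. Compounds (0.01–30 µM) were added, possibly 10 min before, with choline 100 µM, and peak fluorescence was monitored by FDSS. Potentiation was relative to the choline response, set as 100%; EC50 came from sigmoidal curves.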
A general note: Calcium assays in cells follow changes in intracellular calcium, usually with a dye or a luminescent sensor.

Test [2] has as its target T1, human alpha 7-wt nAChR. Put plainly: Patch-clamp current recording (whole-cell voltage-clamp, GH4C1 cells). The test is classed as cell-based. Details: key: Type 0 compounds minimally change the effect size of the current elicited by 1 mM choline.; Type 1 compounds enhance the effect size of the current elicited by 1 mM choline but minimally alter the kinetics of the receptor.; Type 2 compounds enhance the effect size of the current elicited by 1 mM choline while reducing the rate and/or the extent of desensitization.; Type 3 compounds enhance the effect size of the current elicited by 1 mM choline. When tested at higher concentrations up to 10 µM they completely inhibit desensitization; Type 4 compounds allow for an initial desensitization of the receptor followed by a re-opening of the receptor during agonist application. The following applies: current elicited by 1 mM choline. How it is done:
The compounds of the present invention are classified as type 1-4, based on qualitative kinetic properties, as determined by whole-cell voltage-clamp recordings. This classification is based on the effect of an alpha 7 PAM compound, as described hereinbefore, on the signal elicited by an agonist application. In particular, said agonist is choline at a concentration of 1mM. In a preferred experimental setting, said alpha 7 PAM compound and choline are simultaneously applied to the cell, as described hereinafter. Desensitization is defined as the closure of the receptor upon activation during the application of the agonist in whole-cell voltage-clamp electrophysiology measurements seen as the reduction of the […] current after initial activation by the agonist.
The definition of the PAM types 1-4 is described hereinafter: Type 0 compounds minimally change the effect size of the current elicited by 1 mM choline. Type 1 compounds enhance the effect size of the current elicited by 1 mM choline but minimally alter the kinetics of the receptor. In particular, the rate and the extent of desensitization and of deactivation of the receptor elicited by the agonist is not affected. The compound-modulated response to 1 mM choline, therefore, is close to a linear scaling of the 1 mM choline response in absence of the alpha 7 PAM compound: Type 2 compounds enhance the effect size of the current elicited by 1 mM choline while reducing the rate and/or the extent of desensitization. Deactivation of the receptor is generally unaffected. Type 3 compounds enhance the effect size of the current elicited by 1 mM choline. […] Deactivation of the receptor may be slowed down. Type 4 compounds allow for an initial desensitization of the receptor followed by a re-opening of the receptor during agonist application. At low-potency concentrations of the alpha 7 PAM compound, the agonist-induced activation, which is followed by desensitization, can still be separated from the compound-induced re-opening as an initial inward current-maximum. At higher potency concentrations of the alpha 7 PAM compound, the re-opening occurs faster than the closure due to desensitization so that the initial current-maximum disappears.
A compound was considered to have interesting PAM-like activity when the potentiation of the peak current was at least 200% compared to the control choline response (= 100%). Such compounds are classified as belonging to a particular PAM type in the Experimental Part. Compounds not meeting the condition are not classified as belonging to a particular PAM-type.
The compounds also have a potentiating effect on the response to choline when measured by whole-cell patch clamp electrophysiology in GH4C1 cells stably over-expressing the human wild-type alpha 7 receptor.
Example D.2 : Patch-clamp current recording
Patch-clamp recording from mammalian cells has provided a powerful means of assessing the function of membrane-bound proteins thought to be subunits of ligand-gated ion channels. Activation of such proteins by endogenous or exogenous ligands cause opening of a pore associated with the receptor through which ions flow down their electrochemical gradient. In the case of the human alpha 7-wt nAChR-expressing GH4C1 recombinant cell line the preferential permeability to calcium of this receptor means that calcium flows into the cell upon activation by ACh, choline and other nicotinic ligands giving rise to a calcium current. Since this receptor rapidly desensitizes in the presence of agonist it is important that an application system is used which is capable of very rapid switching of solutions (< 100 ms) to prevent partial or full desensitisation of receptor responses coincident with the time of agonist application. Consequently, a second convenient technique to assess the enhancement of nicotinic efficacy is a patch-clamp recording from human alpha 7-wt nAChR-expressing GH4C1 cells coupled with a rapid-application system. […]
Background: The patch-clamp technique gives a direct electrical read-out from membranes.

T1 sequence (P36544 23-502): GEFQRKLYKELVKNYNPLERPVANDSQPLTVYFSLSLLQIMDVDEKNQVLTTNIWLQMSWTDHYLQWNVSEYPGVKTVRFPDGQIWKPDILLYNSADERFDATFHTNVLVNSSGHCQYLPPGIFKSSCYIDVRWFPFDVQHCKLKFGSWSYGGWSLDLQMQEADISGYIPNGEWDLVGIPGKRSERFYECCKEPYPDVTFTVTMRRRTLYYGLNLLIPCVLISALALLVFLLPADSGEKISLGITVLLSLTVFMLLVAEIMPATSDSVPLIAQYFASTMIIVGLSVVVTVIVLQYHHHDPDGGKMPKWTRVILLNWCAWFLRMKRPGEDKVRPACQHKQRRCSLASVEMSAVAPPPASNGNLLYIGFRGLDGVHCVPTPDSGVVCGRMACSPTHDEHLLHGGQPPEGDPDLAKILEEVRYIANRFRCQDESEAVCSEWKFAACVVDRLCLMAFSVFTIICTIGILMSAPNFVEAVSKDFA

On to `Cc1cc(-c2c(F)cc(N3CCO[C@H](C(F)(F)F)C3)cc2CNC(=O)C(C)C)cc(C)n1` [Compound 107], for which the EC50 at human alpha 7-wt nAChR [1] (Ca2+ assay as described in D.1) was 30.9 nM. Besides, the Emax at human alpha 7-wt nAChR [1] came out at 266%. Also, at human alpha 7-wt nAChR [2], the PAM type amounted to 2.
The matching figures for `Cc1cc(-c2c(F)cc(N3CCO[C@H](C(F)(F)F)C3)cc2CNC(=O)c2cc(C)on2)cc(C)n1` [Compound 111]: 331 nM, 550% and 1.
The matching figures for `Cc1cc(-c2c(F)cc(N3CCO[C@H](C(F)(F)F)C3)cc2CNC(=O)c2conc2C)cc(C)n1` [Compound 106]: 36.3 nM, 159% and 2.
Regarding `Cc1cc(-c2c(F)cc(N3C[C@@H](C)O[C@@H](C)C3)cc2CNC(=O)C(C)C)ccn1` [Compound 89], the EC50 on human alpha 7-wt nAChR [1] (Ca2+ assay as described in D.1) is 72.4 nM. Besides, the PAM type at human alpha 7-wt nAChR [2] is reported as 2.
On the same counts, the results for `Cc1cc(-c2ccc(N3C[C@@H](C)O[C@@H](C)C3)c(CNC(=O)CC3CC3)c2)cc(C)n1` [Compound 132] are 60.3 nM and 4.
As to `Cc1cc(-c2c(F)cc(N3CCOC(C)C3)cc2CNC(=O)CC2CCC2)cc(C)n1` (centres unmarked) [Compound 118], the EC50 at human alpha 7-wt nAChR [1] (Ca2+ assay as described in D.1) was 23.4 nM. Moreover, the Emax at human alpha 7-wt nAChR [1] was 485%. The PAM type at human alpha 7-wt nAChR [2] is on record as 3.
For the compound `CC(C)C(=O)NCc1cc(N2CCOCC2)ccc1-c1ccncc1` [Compound 137], the Emax at human alpha 7-wt nAChR [1] (Ca2+ assay as described in D.1) was 528%. The PAM type at human alpha 7-wt nAChR [2] turned out to be 0.
Take `Cc1cc(-c2c(F)cc(N3C[C@@H](C)O[C@@H](C)C3)cc2CNC(=O)C2CCOCC2)cc(C)n1` [Compound 86]: the EC50 on human alpha 7-wt nAChR [1] (Ca2+ assay as described in D.1) is 148 nM. Moreover, the PAM type at human alpha 7-wt nAChR [2] amounted to 3.
On the same counts, the results for `Cc1cc(-c2c(F)cc(N3CCO[C@@H](C(F)(F)F)C3)cc2CNC(=O)CC2CC2)cc(C)n1` [Compound 104] are 9.12 nM and 3.
`Cc1cc(-c2c(Cl)cc(N3C[C@@H](C)O[C@@H](C)C3)cc2CNC(=O)C(C)C)cc(C)n1` [Compound 121]: the EC50 at human alpha 7-wt nAChR [1] (Ca2+ assay as described in D.1) is 38 nM. Moreover, the Emax on human alpha 7-wt nAChR [1] worked out at 435%. Besides, the PAM type at human alpha 7-wt nAChR [2] came out at 2.
`Cc1cc(-c2ccc(N3C[C@@H](C)O[C@@H](C)C3)cc2CNC(=O)c2conc2C)cc(C)n1` [Compound 4]: the EC50 on human alpha 7-wt nAChR [1] (Ca2+ assay as described in D.1) was 45.7 nM. For the same compound, on human alpha 7-wt nAChR [2], the PAM type is on record as 2.
For the compound `Cc1cc(-c2c(F)cc(N3CCO[C@H](C(F)(F)F)C3)cc2CNC(=O)CC2CC2)cc(C)n1` [Compound 108], the EC50 at human alpha 7-wt nAChR [1] (Ca2+ assay as described in D.1) is 18.6 nM. Further, on human alpha 7-wt nAChR [1], the Emax is 432%. Also, the PAM type on human alpha 7-wt nAChR [2] turned out to be 2.
Consider `Cc1cc(-c2c(F)cc(N3CCOC(C)C3)cc2CNC(=O)C2CC2)cc(C)n1` (centres unmarked) [Compound 115], for which the EC50 at human alpha 7-wt nAChR [1] (Ca2+ assay as described in D.1) is 525 nM. Moreover, the Emax at human alpha 7-wt nAChR [1] amounted to 232%. For the same compound, at human alpha 7-wt nAChR [2], the PAM type was determined as 2.
Regarding `Cc1cc(-c2cc(F)c(N3C[C@@H](C)O[C@@H](C)C3)cc2CNC(=O)C(C)C)cc(C)n1` [Compound 128], the EC50 on human alpha 7-wt nAChR [1] (Ca2+ assay as described in D.1) is 295 nM. In addition, the Emax on human alpha 7-wt nAChR [1] came to 329%. For the same compound, the PAM type at human alpha 7-wt nAChR [2] came out at 2.
As for `Cc1cc(-c2ccc(N3C[C@@H](C)O[C@@H](C)C3)c(CNC(=O)c3cc(C)on3)c2)cc(C)n1` [Compound 133], the EC50 at human alpha 7-wt nAChR [1] (Ca2+ assay as described in D.1) is 50.1 nM. The PAM type at human alpha 7-wt nAChR [2] came out at 0.
